Experimental data reported in the supplement of paper PMC4380931.

Assays:
C32 [1] = assay: relative viability (cell count relative to DMSO-treated control) (fraction of DMSO control); higher = more viable cells / less drug effect
Protocol: (§1)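 BRAF V600E/D melanoma cell lines were seeded in 96-well plates, treated in 4 replicates with seven doses (3.16 nM to 3.16 uM) of RAF/MEK inhibitors for 24, 48 or 72 h, and stained with Hoechst 33342 (nuclei) and DEVD-NucView488 caspase-3 substrate. Plates were imaged on an Operetta. Relative viability is the cell count normalised to a DMSO-treated control; apoptosis fraction is the fraction of NucView488-positive nuclei.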

SKMEL28 = assay: as above
Protocol: as §1

COLO858 [2] = assay: as above
Protocol: as §1

MMACSF = assay: apoptotic fraction of cells (caspase-3 NucView488 positive); higher = more apoptosis
Protocol: as §1

C32 [3] = assay: as above
Protocol: as §1

COLO858 [4] = assay: as above
Protocol: as §1

Cn1cnc2c(F)c(Nc3ccc(Br)cc3Cl)c(C(=O)NOCCO)cc21 [Selumetinib]
Details	apoptotic fraction of cells, C32 [3]	apoptotic fraction of cells, COLO858 [4]	apoptotic fraction of cells, MMACSF	relative viability, C32 [1]	relative viability, COLO858 [2]	relative viability, SKMEL28
24 h, 0.00316 µM	0.0878	0.0501	0.0508	1.02	0.844	–
24 h, 0.01 µM	0.113	0.0441	0.0478	1.02	1.09	–
24 h, 0.0316 µM	0.144	0.0433	0.0349	1	1.24	–
24 h, 0.1 µM	0.213	0.0474	0.0436	0.891	1.12	–
24 h, 0.316 µM	0.215	0.083	0.0526	0.938	1.01	–
24 h, 1 µM	0.236	0.137	0.0569	0.861	0.937	–
24 h, 3.16 µM	0.272	0.149	0.0615	0.811	0.856	–
48 h, 0.00316 µM	0.0773	0.0496	0.0481	1.24	0.983	0.799
48 h, 0.01 µM	0.0963	0.049	0.039	1.09	1.05	1.31
48 h, 0.0316 µM	0.0636	0.0473	0.0469	1.15	1.06	1.43
48 h, 0.1 µM	0.107	0.0649	0.0518	0.959	0.702	1.12
48 h, 0.316 µM	0.262	0.155	0.0667	0.71	0.455	0.964
48 h, 1 µM	0.598	0.232	0.14	0.322	0.374	0.852
48 h, 3.16 µM	0.83	0.313	0.232	0.127	0.315	0.604
72 h, 0.00316 µM	0.103	0.0958	0.0392	0.891	0.974	1.06
72 h, 0.01 µM	0.0822	0.0753	0.0379	0.998	1.05	0.975
72 h, 0.0316 µM	0.0406	0.0678	0.0318	0.952	0.843	0.804
72 h, 0.1 µM	0.108	0.0769	0.0807	0.698	0.545	0.543
72 h, 0.316 µM	0.403	0.134	0.193	0.347	0.427	0.449
72 h, 1 µM	0.759	0.259	0.434	0.112	0.342	0.419
72 h, 3.16 µM	0.862	0.383	0.617	0.0615	0.28	0.337

CCCS(=O)(=O)Nc1ccc(F)c(C(=O)c2c[nH]c3ncc(Cl)cc23)c1F [PLX4720]
Details	apoptotic fraction of cells, C32 [3]	apoptotic fraction of cells, COLO858 [4]	apoptotic fraction of cells, MMACSF	relative viability, C32 [1]	relative viability, COLO858 [2]	relative viability, SKMEL28
24 h, 0.00316 µM	0.0873	0.0469	0.0449	0.98	1.03	–
24 h, 0.01 µM	0.121	0.0452	0.0443	1	1.15	–
24 h, 0.0316 µM	0.119	0.0424	0.0397	1.04	1.21	–
24 h, 0.1 µM	0.153	0.0482	0.0422	1.01	1.17	–
24 h, 0.316 µM	0.174	0.0562	0.0417	0.942	1.02	–
24 h, 1 µM	0.245	0.108	0.0492	0.824	0.946	–
24 h, 3.16 µM	0.29	0.154	0.0464	0.693	0.808	–
48 h, 0.00316 µM	0.0967	0.0522	0.0462	1.11	0.968	0.824
48 h, 0.01 µM	0.159	0.0523	0.0457	0.905	1.07	1.43
48 h, 0.0316 µM	0.158	0.0462	0.0434	0.929	1.06	1.48
48 h, 0.1 µM	0.105	0.0498	0.0443	1.01	0.893	1.42
48 h, 0.316 µM	0.143	0.0785	0.0469	0.857	0.538	1.12
48 h, 1 µM	0.465	0.184	0.0555	0.454	0.407	0.941
48 h, 3.16 µM	0.784	0.323	0.0933	0.155	0.306	0.61
72 h, 0.00316 µM	0.0846	0.0883	0.0394	0.957	1.13	0.973
72 h, 0.01 µM	0.0849	0.0826	0.0424	1.08	1.2	0.881
72 h, 0.0316 µM	0.0684	0.0717	0.0386	1.1	1.19	0.968
72 h, 0.1 µM	0.0354	0.053	0.0346	0.937	0.893	0.866
72 h, 0.316 µM	0.215	0.0842	0.0549	0.516	0.569	0.598
72 h, 1 µM	0.619	0.183	0.218	0.182	0.417	0.458
72 h, 3.16 µM	0.813	0.374	0.534	0.0669	0.273	0.389
